Assay results as given in patent US11155550B2, “Histone deacetylase inhibitors and methods of use thereof” (Reaction Biology Corp., priority 2018, dated 2021).

Biological target: T1, Complex of human HDAC3 and human NCOR2 (Homo sapiens, UniProt O15379)
T1 construct: full-length with a C-terminal His tag, MW=49.7 kDa; His tag (C); made in house; host or cells: baculovirus expression system
Test: Biochemical HDAC enzymatic assay, HDAC3
Details: Table 1; incubation time 10 min
Description: Incubation time for HDAC1/2 is 120 min, and 10 min for other HDACs.
Complex of human HDAC3 (GenBank Accession No. NM_003883), full-length with a C-terminal His tag, MW=49.7 kDa, and human NCOR2 (amino acid 395-489) (GenBank Accession No. NM_006312), N-terminal GST tag, MW=37.6 kDa, was co-expressed in a baculovirus expression system.
• I. Compound handling: Testing compounds were dissolved in 100% DMSO to a specific concentration. The serial dilution was conducted by epMotion 5070 in DMSO. • II. HDAC reaction buffer: 50 mM Tris-HCl, pH8.0, 137 mM NaCl, 2.7 mM KCl, and 1 mM MgCl2, Added fresh: 1 mg/ml BSA, 1% DMSO. • III. Substrate: Fluorogenic HDAC General Substrate for HDAC1, 2, 3, 6, 10, 11 ans Sirt1, 2 and 3: Arg-His-Lys-Lys(Ac); HDAC8 only substrate: Arg-His-Lys(Ac)-Lys(Ac); Class2A Substrate (HDAC4, 5, 7 and 9): Acetyl-Lys(trifluoroacetyl)-AMC; Sirt5 substrate: Ac-Lys(succinyl)-AMC. • IV. General Reaction Procedure: (Standard IC50 determination) • a. Delivered 2× enzyme in wells of reaction plate except No Enzyme (No En) control wells. Add buffer in No En wells. • b. Delivered compounds in 100% DMSO into the enzyme mixture by Acoustic technology (Echo550; nanoliter range). Spin down and pre-incubation. • c. Delivered 2× Substrate Mixture (Fluorogenic HDAC Substrate and co-factor (500 μM of Nicotinamide adenine dinucleotide (NAD^+) in all Sirt assay) in all reaction wells to initiate the reaction. Spin and shake. • d. Incubated for 1-2 hr. at 30° C. with seal. • e. Added Developer with Trichostatin A (or TMP269 or NAD^+) to stop the reaction and to generate fluorescent color. • f. Fluorescence was read (excitatory, 360; emission, 460) using the EnVision Multilabel Plate Reader (Perkin Elmer) • g. Endpoint reading was taken for analysis after the development reaches plateau. • V. Data Analysis: The percentages of enzyme activity (relative to DMSO controls) and IC50 values were calculated using the GraphPad Prism 4 program based on a sigmoidal dose-response equation.
The inhibitory activities of HDAC of compounds of the invention were determined using biochemical HDAC assays. Compounds were tested at the indicated doses in the biochemical assays of HDAC1, HDAC2, HDAC3, HDAC4, HDAC5, HDAC6, HDAC7, HDAC8, HDAC9, HDAC10, or HDAC11 enzyme. The curve fit and IC50 values were calculated using the GraphPad Prism 4 program based on a sigmoidal dose-response equation.
• I. Compound handling: Testing compounds were dissolved in 100% DMSO to a specific concentration. The serial dilution was conducted by epMotion 5070 in DMSO. • II. HDAC reaction buffer: 50 mM Tris-HCl, pH8.0, 137 mM NaCl, 2.7 mM KCl, and 1 mM MgCl2, Added fresh: 1 mg/ml BSA, 1% DMSO. • III. Substrate: Fluorogenic HDAC General Substrate for HDAC1, 2, 3, 6, 10, 11 ans Sirt1, 2 and 3: Arg-His-Lys-Lys(Ac); HDAC8 only substrate: Arg-His-Lys(Ac)-Lys(Ac); Class2A Substrate (HDAC4, 5, 7 and 9): Acetyl-Lys(trifluoroacetyl)-AMC; Sirt5 substrate: Ac-Lys(succinyl)-AMC. • IV. General Reaction Procedure: (Standard IC50 determination) • a. Delivered 2× enzyme in wells of reaction plate except No Enzyme (No En) control wells. Add buffer in No En wells. • b. Delivered compounds in 100% DMSO into the enzyme mixture by Acoustic technology (Echo550; nanoliter range). Spin down and pre-incubation. • c. […]

T1 sequence (O15379 whole entry): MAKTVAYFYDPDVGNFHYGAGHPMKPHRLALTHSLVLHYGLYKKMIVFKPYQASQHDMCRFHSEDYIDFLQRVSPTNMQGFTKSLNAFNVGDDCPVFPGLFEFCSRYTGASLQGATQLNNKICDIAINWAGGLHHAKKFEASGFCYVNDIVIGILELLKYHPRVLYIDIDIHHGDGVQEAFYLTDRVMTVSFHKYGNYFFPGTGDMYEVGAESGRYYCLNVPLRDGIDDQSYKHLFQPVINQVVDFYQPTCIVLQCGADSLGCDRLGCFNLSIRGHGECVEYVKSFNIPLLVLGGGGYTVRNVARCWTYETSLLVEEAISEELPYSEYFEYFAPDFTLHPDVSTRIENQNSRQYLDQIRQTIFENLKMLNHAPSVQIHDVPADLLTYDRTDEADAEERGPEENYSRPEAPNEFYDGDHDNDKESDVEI
T1 sequence (Q9Y618 395-489 partner limits assumed): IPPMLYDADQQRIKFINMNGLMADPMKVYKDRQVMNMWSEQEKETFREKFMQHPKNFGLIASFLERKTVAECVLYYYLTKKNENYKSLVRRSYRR

| SMILES | IC50 [µM] |
| --- | --- |
| Nc1ccc(-c2cccs2)cc1NC(=O)c1ccc(CN2C(=O)CCCC23CNC3)cc1 [Example 1, N-(2-amino-5-(thiophen-2-yl)phenyl)-4-((6-oxo-2,5-diazaspiro[3.5]nonan-5-yl)methyl)benzamide] | 13 |
| Nc1cc(F)ccc1NC(=O)c1ccc(CN2C(=O)CCCC23CNC3)cc1 [Example 3, N-(2-amino-4-fluorophenyl)-4-((6-oxo-2,5-diazaspiro[3.5]nonan-5-yl)methyl)benzamide] | 1.9 |
| Nc1ccc(-c2cccs2)cc1NC(=O)c1ccc(N2CC3(CCNCC3)CCC2=O)nc1 [Example 6, N-(2-amino-5-(thiophen-2-yl)phenyl)-6-(3-oxo-2,9-diazaspiro[5.5]undecan-2-yl)nicotinamide] | > 20 |

More lines, now with the values ahead:

| IC50 [µM] | SMILES |
| --- | --- |
| > 20 | Nc1ccc(-c2cccs2)cc1NC(=O)c1ccc(CN2C(=O)CCC23CCNCC3)cc1 [Example 2, N-(2-amino-5-(thiophen-2-yl)phenyl)-4-((2-oxo-1,8-diazaspiro[4.5]decan-1-yl)methyl)benzamide] |
| 17.4 | CN1CCC2(CC1)CN(c1ccc(C(=O)Nc3cc(-c4cccs4)ccc3N)cn1)C(=O)O2 [Example 4, N-(2-amino-5-(thiophen-2-yl)phenyl)-6-(8-methyl-2-oxo-1-oxa-3,8-diazaspiro[4.5]decan-3-yl)nicotinamide] |
| > 20 | Nc1ccc(-c2ccc(F)cc2)cc1NC(=O)c1ccc(N2CC3(CCOCC3)OC2=O)nc1 [Example 5, N-(4-amino-4′-fluoro-[1,1′-biphenyl]-3-yl)-6-(2-oxo-1,8-dioxa-3-azaspiro[4.5]decan-3-yl)nicotinamide] |

Same assay, conditions: Table 2; incubation time 10 min

| IC50 [µM] | SMILES |
| --- | --- |
| > 10 | O=C(NO)c1ccc(CN2C(=O)c3ccccc3C23OCCO3)cc1 [Compound Example 8, N-hydroxy-4-((3-oxospiro[isoindoline-1,2′-[1,3]dioxolan]-2-yl)methyl)benzamide] |
| 21 | O=C(NO)c1ccc(CN2C(=O)C3(CCOC3)c3ccccc32)cc1 (centres unmarked) [Compound Example 9] |
| 7 | O=C(NO)c1ccc(CN2C(=O)c3ccccc3C23CCNCC3)cc1 [Compound Example 10, N-hydroxy-4-((3-oxospiro[isoindoline-1,4′-piperidin]-2-yl)methyl)benzamide] |
| > 10 | CN(C)C(=O)N1CCC2(CC1)c1ccccc1C(=O)N2Cc1ccc(C(=O)NO)cc1 [Compound Example 11, 2-(4-(hydroxycarbamoyl)benzyl)-N,N-dimethyl-3-oxospiro[isoindoline-1,4′-piperidine]-1′-carboxamide] |
| 9.26 | O=C(NO)c1ccc(CN2C(=O)c3ccccc3C23CCN(C2CC2)CC3)cc1 [Compound Example 12, 4-((1′-cyclopropyl-3-oxospiro[isoindoline-1,4′-piperidin]-2-yl)methyl)-N-hydroxybenzamide] |
